The text below walks through data of patent publication US11541132B2, “Radiolabeled compounds” (Hoffmann-La Roche Inc., priority 2017, dated 2023).

Where two headings read alike, the source gives them in different places.

Assay [1] has as its target T1, native aSyn aggregates in A30P transgenic mouse brain sections (Homo sapiens, UniProt P37840, A30P).
T1 construct: from tissue; host or cells: brain sections (midbrain and pons as ROI) of A30P transgenic mice, line B6.D2-Tg(Thy1-SNCA*30P)31Pjk
The assay can be described thus: aSyn in vitro displacement assay ([3H]Example-3 autoradiography). The format is binding, mutant human aSyn gene). Particulars: for inhibition at 1 µM: read-out: PCT_INHIB A30P @ 1 μM (% displacement of [3H]Example-3). For orientation: In a radioligand displacement assay an active substance lowers the binding of a labelled ligand.

Assay [2] concerns the target T2, native Aβ aggregates in human AD brain tissue sections (Homo sapiens, UniProt P05067).
T2 construct: native Aβ aggregates in human AD brain tissue samples; from tissue; host or cells: human AD brain tissue sections
The assay can be described thus: Aβ in vitro displacement assay (selectivity counterscreen, [3H]Example 3 autoradiography). It is filed as binding. Particulars: for inhibition at 1 µM: read-out: sel. counterscreen PCT_INHIB AD @ 1 μM (% displacement of [3H]Example 3). For orientation: Counterscreens check selectivity or assay interference.

Setting [3] is: 1 μM compound, 3 nM [3H]Example-3, A30P transgenic mouse brain sections.
Where [4] appears, read: 1 μM compound, 3 nM [3H]Example 3, human AD brain sections.

T2 sequence (P05067 672-713 limits assumed): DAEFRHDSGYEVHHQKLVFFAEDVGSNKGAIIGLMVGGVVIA

As to `O=C(Nc1ccc(N2CCN(c3ccccn3)CC2)cc1)c1ccc2c(c1)OCO2` [Example 15, N-(4-(4-(Pyridin-2-yl)piperazin-1-yl)phenyl)benzo[d][1,3]dioxole-5-carboxamide], the inhibition at 1 µM in assay [1] (setting [3]) turned out to be 94%; in assay [2] (setting [4]) it was 98%.

As for `COc1ccc(C(=O)Nc2ccc(N3CCN(c4ccncc4)CC3)cc2)cc1` [Example 41, 4-Methoxy-N-[4-[4-(4-pyridyl)piperazin-1-yl]phenyl]benzamide], the inhibition at 1 µM in assay [1] (setting [3]) is 84%; in assay [2] (setting [4]), 90%.

Turning to `COc1ccc(C(=O)Nc2ccc(N3CCN(c4ccc(OC)cc4)CC3)cc2)cc1` [Example 110, 4-Methoxy-N-[4-[4-(4-methoxyphenyl)piperazin-1-yl]phenyl]benzamide], the inhibition at 1 µM in assay [1] (setting [3]) and in assay [2] (setting [4]) was 99% throughout.

Turning to `COc1ccc(C(=O)Nc2cnc(N3CCN(c4ccccn4)CC3)nc2)nc1` [Example 79, 5-Methoxy-N-(2-(4-(pyridin-2-yl)piperazin-1-yl)pyrimidin-5-yl)picolinamide], the inhibition at 1 µM in assay [1] (setting [3]) was found to be 95%; in assay [2] (setting [4]), 93%.

Take `COc1ccc(C(=O)Nc2ccc(N3CCN(c4cccnc4)CC3)cc2)cc1` [Example 38, 4-Methoxy-N-(4-(4-(pyridin-3-yl)piperazin-1-yl)phenyl)benzamide]: the inhibition at 1 µM in assay [1] (setting [3]) came out at 96%; in assay [2] (setting [4]) it was 93%.

With `COc1ccc(C(=O)Nc2cnc(N3CCN(c4ccccn4)CC3)nc2)c(C)c1` [Example 72, 4-Methoxy-2-methyl-N-(2-(4-(pyridin-2-yl)piperazin-1-yl)pyrimidin-5-yl)benzamide], the inhibition at 1 µM in assay [1] (setting [3]) stood at 80%; in assay [2] (setting [4]), 86%.

In the case of `N#Cc1ccc(N2CCN(c3ccc(NC(=O)c4ccc(OCCF)cc4)cc3)CC2)nc1` [Example 116, N-[4-[4-(5-Cyano-2-pyridyl)piperazin-1-yl]phenyl]-4-(2-fluoroethoxy)benzamide], the inhibition at 1 µM in assay [1] (setting [3]) was 81%; in assay [2] (setting [4]) it was 85%.

For `COc1ccc(C(=O)Nc2ccc(N3CCN(c4ccc(C)cc4)CC3)cc2)cc1` [Example 109, 4-Methoxy-N-[4-[4-(p-tolyl)piperazin-1-yl]phenyl]benzamide], the inhibition at 1 µM came out at 96% in assay [1] (setting [3]) and 97% in assay [2] (setting [4]).

For the compound `COc1ccc(C(=O)Nc2ccc(N3CCN(c4cc(C)c(C#N)cn4)CC3)cc2)cc1` [Example 151, N-(4-(4-(5-Cyano-4-methylpyridin-2-yl)piperazin-1-yl)phenyl)-4-methoxybenzamide], the inhibition at 1 µM in assay [1] (setting [3]) worked out at 93%; in assay [2] (setting [4]), 91%.

As to `CC(C)(C)[Si](C)(C)OC(CF)COc1ccc(C(=O)Nc2ccc(N3CCN(c4cc(C#N)ccn4)CC3)cc2)cc1` (racemic) [Example 128, rac-4-(2-((tert-Butyldimethylsilyl)oxy)-3-fluoropropoxy)-N-(4-(4-(4-cyanopyridin-2-yl)piperazin-1-yl)phenyl)benzamide], the figures for the inhibition at 1 µM in assay [1] and in assay [2] were 92% and 98%, respectively.

As to `O=C(Nc1ccc(N2CCN(c3nccs3)CC2)cc1)c1ccc(OCC(O)CF)cc1` (racemic) [Example 130, rac-4-(3-Fluoro-2-hydroxypropoxy)-N-(4-(4-(thiazol-2-yl)piperazin-1-yl)phenyl)benzamide], the inhibition at 1 µM worked out at 81% in assay [1] (setting [3]) and 87% in assay [2] (setting [4]).

As to `N#Cc1ccc(N2CCN(c3ncc(NC(=O)c4ccc(N5CCOCC5)cc4)cn3)CC2)nc1` [Example 99, N-(2-(4-(5-Cyanopyridin-2-yl)piperazin-1-yl)pyrimidin-5-yl)-4-morpholinobenzamide], the inhibition at 1 µM in assay [1] (setting [3]) is 82%; in assay [2] (setting [4]) it was 86%.

Turning to `COc1ccc(C(=O)Nc2ccc(N3CCN(c4ccc(C#N)cc4)CC3)cc2)c(F)c1` [Example 114, N-[4-[4-(4-Cyanophenyl)piperazin-1-yl]phenyl]-2-fluoro-4-methoxy-benzamide], the figures for the inhibition at 1 µM in assay [1] (setting [3]) and in assay [2] (setting [4]) were 91% and 92%, respectively.

For the compound `COc1ccc(C(=O)Nc2ccc(N3CCN(c4ncccc4F)CC3)cc2)cc1` [Example 148, N-(4-(4-(3-Fluoropyridin-2-yl)piperazin-1-yl)phenyl)-4-methoxybenzamide], the values for the inhibition at 1 µM in assay [1] (setting [3]) and in assay [2] (setting [4]) were 86% and 89%, respectively.

As to `COc1ccc(C(=O)Nc2ccc(N3CCN(c4ccc(C#N)c(F)c4)CC3)cc2)cc1` [Example 150, N-(4-(4-(4-Cyano-3-fluorophenyl)piperazin-1-yl)phenyl)-4-methoxybenzamide], the figures for the inhibition at 1 µM in assay [1] (setting [3]) and in assay [2] (setting [4]) were 98% and 94%, respectively.

With `Cc1ccc(C(=O)Nc2ccc(N3CCN(c4ccccn4)CC3)nc2)nc1` [Example 33, 5-Methyl-N-[6-[4-(2-pyridyl)piperazin-1-yl]-3-pyridyl]pyridine-2-carboxamide], the figures for the inhibition at 1 µM in assay [1] (setting [3]) and in assay [2] (setting [4]) were 85% and 90%, respectively.

Consider `COc1ccc(C(=O)Nc2ccc(N3CCN(c4cccc(C#N)n4)CC3)cc2)cc1` [Example 100, N-[4-[4-(6-Cyano-2-pyridyl)piperazin-1-yl]phenyl]-4-methoxy-benzamide], for which the inhibition at 1 µM in assay [1] (setting [3]) came out at 86%; in assay [2] (setting [4]), 85%.

For `O=C(Nc1ccc(N2CCN(c3ccccn3)CC2)nn1)c1ccc(N2CCOCC2)cc1` [Example 48, 4-Morpholino-N-[6-[4-(2-pyridyl)piperazin-1-yl]pyridazin-3-yl]benzamide], the inhibition at 1 µM in assay [1] (setting [3]) was found to be 97%; in assay [2] (setting [4]) it was 93%.

On to `COc1ccc(C(=O)Nc2ccc(N3CCN(c4ccc(C#N)cc4)CC3)cc2)cc1OC` [Example 169, N-(4-(4-(4-Cyanophenyl)piperazin-1-yl)phenyl)-3,4-dimethoxybenzamide], for which the inhibition at 1 µM worked out at 83% in assay [1] (setting [3]) and 82% in assay [2] (setting [4]).

`COc1ccc(C(=O)Nc2ccc(N3CCN(c4cc(Cl)c(C#N)cn4)CC3)cc2)cc1` [Example 152, N-(4-(4-(4-Chloro-5-cyanopyridin-2-yl)piperazin-1-yl)phenyl)-4-methoxybenzamide]: the inhibition at 1 µM in assay [1] (setting [3]) is 90%; in assay [2] (setting [4]), 88%.

Consider `COc1ccc(C(=O)Nc2ccc(N3CCN(c4ccccn4)CC3)nc2)c(F)c1` [Example 34, 2-Fluoro-4-methoxy-N-[6-[4-(2-pyridyl)piperazin-1-yl]-3-pyridyl]benzamide], for which the values for the inhibition at 1 µM in assay [1] (setting [3]) and in assay [2] (setting [4]) were 84% and 99%, respectively.

Turning to `O=C(Nc1ccc(N2CCN(c3nccs3)CC2)cc1)c1ccc(OCCF)cc1` [Example 119, 4-(2-Fluoroethoxy)-N-[4-(4-thiazol-2-ylpiperazin-1-yl)phenyl]benzamide], the results for the inhibition at 1 µM in assay [1] (setting [3]) and in assay [2] (setting [4]) were 83% and 89%, respectively.

On to `COc1ccc(C(=O)Nc2ccc(N3CCN(c4ccccn4)CC3)cn2)cc1` [Example 43, 4-Methoxy-N-(5-(4-(pyridin-2-yl)piperazin-1-yl)pyridin-2-yl)benzamide], for which the inhibition at 1 µM was 84% in assay [1] (setting [3]) and 99% in assay [2] (setting [4]).

On to `N#Cc1ccc(N2CCN(c3ccc(NC(=O)c4ccc(OCCOCCOCCF)cc4)cc3)CC2)cc1` [Example 123, N-[4-[4-(4-Cyanophenyl)piperazin-1-yl]phenyl]-4-[2-[2-(2-fluoroethoxy)ethoxy]ethoxy]benzamide], for which the results for the inhibition at 1 µM in assay [1] (setting [3]) and in assay [2] (setting [4]) were 80% and 95%, respectively.

With `CN(C)c1ccc(C(=O)Nc2ccc(N3CCN(c4ccccn4)CC3)cc2)cc1` [Example 7, 4-(Dimethylamino)-N-(4-(4-(pyridin-2-yl)piperazin-1-yl)phenyl)benzamide], the inhibition at 1 µM in assay [1] (setting [3]) came to 90%; in assay [2] (setting [4]), 108%.

Turning to `CN1CCN(c2ccc(C(=O)Nc3cnc(N4CCN(c5ccccn5)CC4)cn3)cc2)CC1` [Example 87, 4-(4-Methylpiperazin-1-yl)-N-(5-(4-(pyridin-2-yl)piperazin-1-yl)pyrazin-2-yl)benzamide], the inhibition at 1 µM in assay [1] (setting [3]) turned out to be 88%; in assay [2] (setting [4]), 98%.

For `COc1ccc(C(=O)Nc2ccc(N3CCN(c4ccc(C#N)cc4OC)CC3)cc2)cc1` [Example 139, N-(4-(4-(4-Cyano-2-methoxyphenyl)piperazin-1-yl)phenyl)-4-methoxybenzamide], the inhibition at 1 µM in assay [1] (setting [3]) and in assay [2] (setting [4]) was 94% throughout.

As for `Cc1ccc(C(=O)Nc2cnc(N3CCN(c4ccccn4)CC3)cn2)cc1` [Example 89, 4-Methyl-N-(5-(4-(pyridin-2-yl)piperazin-1-yl)pyrazin-2-yl)benzamide], the inhibition at 1 µM in assay [1] (setting [3]) amounted to 85%; in assay [2] (setting [4]), 88%.

As to `C#Cc1ccc(N2CCN(c3ccc(NC(=O)c4ccc(OC)cc4)cc3)CC2)nc1` [Example 176, N-[4-[4-(5-Ethynyl-2-pyridyl)piperazin-1-yl]phenyl]-4-methoxy-benzamide], the inhibition at 3 µM in assay [1] (3 μM compound, 3 nM [3H]Example-3, A30P transgenic mouse brain sections, read-out: PCT_INHIB A30P @ 3 μM) was 102%; in assay [2] (3 μM compound, 3 nM [3H]Example 3, human AD brain sections, read-out: sel. counterscreen PCT_INHIB AD @ 3 μM), 97%.

Turning to `N#Cc1ccc(C(=O)Nc2ccc(N3CCN(c4ccc(C#N)cn4)CC3)cc2)cc1` [Example 164, 4-Cyano-N-(4-(4-(5-cyanopyridin-2-yl)piperazin-1-yl)phenyl)benzamide], the inhibition at 1 µM was 80% in assay [1] (setting [3]) and 90% in assay [2] (setting [4]).

For `COc1ccc(C(=O)Nc2ccc(N3CCN(c4ccccn4)CC3)cn2)c(F)c1` [Example 44, 2-Fluoro-4-methoxy-N-(5-(4-(pyridin-2-yl)piperazin-1-yl)pyridin-2-yl)benzamide], the inhibition at 1 µM in assay [1] (setting [3]) is 95%; in assay [2] (setting [4]) it was 94%.
